Consider six compounds from PMC11984924, “Dipeptidic Phosphonates: Potent Inhibitors of Pseudomonas aeruginosa Elastase B Showing Efficacy in a Murine Keratitis Model” (Advanced Science, 2025).

For series [1], the system named is A549 cells. In words: Cytotoxicity A549. The class given is cell-based. The note with it: Homo sapiens, A549, read-out: A549 % inhibition at 100 µM (metabolic activity), 48 hours. As to the method: (§1) HepG2 (human hepatocellular carcinoma), HEK293 (human embryonal kidney) and A549
(§2) (human lung carcinoma) cells (2x10^5 cells per well) were seeded in 24-well in flat-bottomed
(§3) plates. Culturing of cells, incubations and OD measurements were performed as described
(§4) previously with small modifications.[14] Twenty-four hours after seeding the cells the incubation
(§5) was started by the addition of compounds in a final DMSO concentration of 1%. The living cell
(§6) mass was determined after 48 hours in a PHERAstar microplate reader (BMG labtech,
(§7) Ortenberg, Germany). Two independent measurements were performed for each compound.

A short description of series [2]: Metabolic stability in human liver S9 fraction. The class given is in vitro ADME. Conditions: human liver S9, 1 µM. As to the method: (§8) page 57: 3. Biological evaluation 3.1 In vitro inhibition assays […] MMPs, TACE). […] inhibitor screening kits were purchased from Sigma-Aldrich (Saint Louis, MO). MMPs along with the SensoLyte 520 Generic MMP Activity Kit Fluorimetric were purchased from AnaSpec (Fremont, CA, USA). The assays were performed according to the guidelines of the respective manufacturer. Fluorescence signals were measured using a CLARIOstar plate reader (BMG Labtech, Ortenberg, Germany). 3.2 Kinetic solubility […] well were transferred into another 96-well plate and mixed with 148.5 µL of PBS. Plates were shaken for 5 min at 600 rpm at room temperature (r.t.), and the absorbance at 620 nm was measured. Absorbance values were normalized by blank subtraction and plotted using GraphPad Prism 8.4.2 (GraphPad Software, San Diego, CA, USA). Solubility (S) was […] 3.3 Lipophilicity determination LogD7.4 was analyzed using an HPLC−based method. The UV retention time of reference […] Linear […] Analysis was performed using a Vanquish Flex HPLC system with variable wavelength detector (Thermo Fisher, Dreieich, Germany) with the following conditions: EC150/2 NUCLEODUR C18 Pyramid column, 5 μM (Macherey Nagel, Düren, Germany); eluent A: 50 mM NH4OAc pH 7.4, eluent B: acetonitrile, and flow: 0.6 mL/min. […] 3.4 Metabolic stability in liver S9 fractions For the evaluation of combined phase I and phase II metabolic stability, the compound (1 μM) was incubated with 1 mg/mL pooled mouse liver S9 fraction (C57BL/6, Xenotech, Kansas Cit y, USA) or human liver S9 fraction (Corning, USA), 2 mM NADPH, 1 mM UDPGA, 10 mM MgCl2, 5 mM GSH and 0.1 mM PAPS at 37 °C for 120 min. The metabolic stability of testosterone, verapamil and ketoconazole were determined in parallel to confirm the enzymatic activity of S56 page 58: mouse S9 fractions, for human S9 testosterone, diclofenac and propranolol were used. The incubation was stopped after defined time points by precipitation of aliquots of S9 enzymes […] Samples were stored on ice until the end of the incubation and precipitated protein was removed by centrifugation (15 min, 4 °C, 4,000 g). Concentration of the remaining test compound at the different time points was analyzed by HPLC-MS/MS (TSQ Quantum Access MAX, Thermo Fisher, Dreieich, Germany) and used to determine half -life (t1/2) and intrinsic clearance (Clint). Species profiling was conducted as above using 0.5 mg/mL pooled mouse, rat or minipig liver microsomes (Xenotech, Kansas City, USA) with 2 mM NADPH and 10 mM MgCl2 and testosterone, verapamil and ketoconazole as reference compounds. 3.5 Plasma stability To determine stability in plasma, the compound (1 µM) was incubated with pooled CD -1 mouse/human/Wistar rat or Göttingen minipig plasma (Neo Biotech, Nanterre, France). Samples were taken by mixing aliquots with 4 volumes of acetonitrile containing internal standard (125 nM diphenhydramine). The plasma stability of procain, propantheline and diltiazem were determined in parallel to confirm the enzymatic activity. Samples were stored on ice until the end of the incubation and precipitated protein was removed by centrifugation (15 min, 4 °C, 4,000 g, two centrifugation steps). Concentration of the remaining test compound at the different time points was analyzed by HPLC-MS/MS (TSQ Quantum Access MAX, Thermo Fisher, Dreieich, Germany) and used to determine half-life (t1/2). Table S2: Additional in vitro ADMET data for selected dipeptides. n.d.: not determined. […] Compound Solubility PBS pH 7.4 [µM] Mouse Human Mouse Human […] S57

Series [3] addresses T1, TACE (ADAM17) (Homo sapiens, UniProt P78536).
T1 construct: purchased Sigma-Aldrich (Saint Louis, MO)
Briefly: TACE (ADAM17) inhibition (off-target). The class given is biochemical. The note with it: read-out: TACE (ADAM17) % inhibition at 100 µM. As to the method: (§9) 3.1 In vitro inhibition assays
(§10) LasB was expressed and purified as described previously.[3] In vitro inhibition assays (LasB, MMPs, TACE). All in vitro inhibition assays were performed as described previously.[10] TACE inhibitor screening kits were purchased from Sigma-Aldrich (Saint Louis, MO). MMPs along with the SensoLyte 520 Generic MMP Activity Kit Fluorimetric were purchased from AnaSpec (Fremont, CA, USA). The assays were performed according to the guidelines of the respective manufacturer. Fluorescence signals were measured using a CLARIOstar plate reader (BMG Labtech, Ortenberg, Germany). […]
(§11) 3.8 Test against zinc metalloproteases MMP1–3 and TACE (ADAM17), and testing of
(§12) We selected a panel of human off -targets, including three human matrix metalloproteases (MMP-1, -2 and -3) and TACE (ADAM-17). These assays were performed as described previously.[3] The TACE inhibitor screening kit was purchased from Sigma -Aldrich (Saint Louis, MO). MMPs along with the SensoLyte 520 Generic MMP Activity Kit Fluorimetric were purchased from AnaSpec (Fremont, CA, USA). The assays were performed according to the guidelines of the respective manufacturer. Fluorescence signals were measured using a CLARIOstar plate reader (BMG Labtech, Ortenberg, Germany). […]
(§13) Table S6: Percent (%) inhibition of three MMPs (1 –3) and TACE (ADAM17) in presence of selected LasB inhibitors at 100 µM. Results are means and SD of at least two independent experiments. […]
(§14) Compound [% inhibition at [% inhibition at [% inhibition at [% inhibition at 100

Series [4] deals with T2, MMP-3 (Homo sapiens, UniProt P08254).
T2 construct: purchased AnaSpec (Fremont, CA, USA)
T2 sequence (P08254 100-477): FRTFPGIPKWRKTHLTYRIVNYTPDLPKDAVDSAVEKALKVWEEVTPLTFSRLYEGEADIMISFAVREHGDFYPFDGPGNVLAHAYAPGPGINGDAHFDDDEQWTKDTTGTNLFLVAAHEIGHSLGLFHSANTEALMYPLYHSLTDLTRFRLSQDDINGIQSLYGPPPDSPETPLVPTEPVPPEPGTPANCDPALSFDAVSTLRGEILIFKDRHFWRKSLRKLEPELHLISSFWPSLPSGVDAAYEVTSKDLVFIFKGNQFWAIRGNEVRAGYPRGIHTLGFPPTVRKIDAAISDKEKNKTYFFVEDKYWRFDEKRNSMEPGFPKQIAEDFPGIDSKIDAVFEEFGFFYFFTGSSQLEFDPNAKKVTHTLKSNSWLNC
In words: MMP-3 inhibition (off-target). The class given is biochemical. Conditions: read-out: MMP-3 % inhibition at 100 µM. As to the method: as §9, §10, §11, §12, §13, §14

Series [5] deals with HEK293 cells. In words: Cytotoxicity HEK293. Conditions: Homo sapiens, HEK293, read-out: HEK293 % inhibition at 100 µM (metabolic activity), 48 hours. The class given is cell-based. As to the method:
as §1, §2, §3, §4, §5, §6, §7

Series [6] in a line: Metabolic stability in mouse liver S9 fraction. The class given is in vitro ADME. Conditions: C57BL/6, liver S9 fraction; mouse liver S9, 1 µM. As to the method:
as §8

T1 sequence (P78536 215-824): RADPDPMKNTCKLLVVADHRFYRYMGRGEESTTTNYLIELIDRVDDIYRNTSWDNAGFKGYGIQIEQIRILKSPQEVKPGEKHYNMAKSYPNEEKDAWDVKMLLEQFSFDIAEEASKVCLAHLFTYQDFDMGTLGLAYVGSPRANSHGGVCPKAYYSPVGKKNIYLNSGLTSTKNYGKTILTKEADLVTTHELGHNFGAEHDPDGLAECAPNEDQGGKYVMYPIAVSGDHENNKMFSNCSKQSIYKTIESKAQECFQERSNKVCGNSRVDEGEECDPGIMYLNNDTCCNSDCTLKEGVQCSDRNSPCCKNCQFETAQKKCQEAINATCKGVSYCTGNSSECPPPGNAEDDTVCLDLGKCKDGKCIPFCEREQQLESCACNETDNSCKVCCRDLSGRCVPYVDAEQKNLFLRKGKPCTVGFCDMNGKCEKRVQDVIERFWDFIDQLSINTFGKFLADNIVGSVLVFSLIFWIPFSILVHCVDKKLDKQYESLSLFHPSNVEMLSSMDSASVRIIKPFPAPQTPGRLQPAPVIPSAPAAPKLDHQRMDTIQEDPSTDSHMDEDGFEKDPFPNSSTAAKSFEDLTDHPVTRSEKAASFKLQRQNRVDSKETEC

In the case of `CC(C)C[C@H](C(=O)N[C@H](C(=O)Nc1ccc(-n2ccnc2)cc1)C(C)C)P(=O)(O)O` [(R)‐36], the inhibition at 100 µM in series [1] is less than 10%; in series [3], less than 10%; in series [4], less than 10%; in series [5], 11 ± 9%. Further, the microsomal CLint at 1 µM in series [2] and in series [6] was less than 5.8 µL/min/mg each time.
Consider `CC(=O)c1ccc(NC(=O)[C@@H](NC(=O)[C@@H](CC(C)C)P(=O)(O)O)C(C)C)cc1` [(R)‐30], for which the inhibition at 100 µM in series [1] was less than 10%; in series [3], 13 ± 2%; in series [4], less than 10%; in series [5] it was less than 10%. In addition, the microsomal CLint at 1 µM in series [2] and in series [6] was less than 5.8 µL/min/mg throughout.
As for `CC(C)CC(C(=O)N[C@H](C(=O)Nc1ccc(Cl)c(Cl)c1)C1CCCCC1)P(=O)(O)O` (stereo partly drawn) [compound 14], the inhibition at 100 µM in series [1] was less than 10%; in series [3], less than 10%; in series [4] it was less than 10%; in series [5], 51 ± 4%. Besides, the microsomal CLint at 1 µM in series [2] and in series [6] was less than 5.8 µL/min/mg throughout.
As to `CC(C)CC(C(=O)N[C@H](C(=O)Nc1ccc(Cl)c(Cl)c1)C1CCC1)P(=O)(O)O` (stereo partly drawn) [compound 13], the inhibition at 100 µM in series [1], in series [3], in series [4] and in series [5] was less than 10% each time. Also, the microsomal CLint at 1 µM in series [2] and in series [6] was less than 5.8 µL/min/mg in each case.
As for `CC(=O)c1ccc(NC(=O)[C@@H](NC(=O)C(CC(C)C)P(=O)(O)O)C(C)C)cc1` (stereo partly drawn) [compound 30], the inhibition at 100 µM in series [1] was less than 10%; in series [3] it was 13 ± 4%; in series [4] it was less than 10%; in series [5], less than 10%. Besides, the microsomal CLint at 1 µM in series [2] and in series [6] was less than 5.8 µL/min/mg each time.
With `CC(C)CC(C(=O)N[C@H](C(=O)Nc1ccc(Cl)c(Cl)c1)C(C)C)P(=O)(O)O` (stereo partly drawn) [compound 9], the inhibition at 100 µM in series [1], in series [3], in series [4] and in series [5] was less than 10% each time. The microsomal CLint at 1 µM in series [2] and in series [6] was less than 5.8 µL/min/mg throughout.
